Publication PMC3893891 (Journal of biomolecular screening, 2012)

What was measured:
Type in all cases: biochemical
Details in all cases: OMFP substrate
PTP1B = biological target: T1, PTP1B (Homo sapiens, UniProt P18031); experiment: Phosphatase assay of PTP1B
T1 sequence (P18031 1-435): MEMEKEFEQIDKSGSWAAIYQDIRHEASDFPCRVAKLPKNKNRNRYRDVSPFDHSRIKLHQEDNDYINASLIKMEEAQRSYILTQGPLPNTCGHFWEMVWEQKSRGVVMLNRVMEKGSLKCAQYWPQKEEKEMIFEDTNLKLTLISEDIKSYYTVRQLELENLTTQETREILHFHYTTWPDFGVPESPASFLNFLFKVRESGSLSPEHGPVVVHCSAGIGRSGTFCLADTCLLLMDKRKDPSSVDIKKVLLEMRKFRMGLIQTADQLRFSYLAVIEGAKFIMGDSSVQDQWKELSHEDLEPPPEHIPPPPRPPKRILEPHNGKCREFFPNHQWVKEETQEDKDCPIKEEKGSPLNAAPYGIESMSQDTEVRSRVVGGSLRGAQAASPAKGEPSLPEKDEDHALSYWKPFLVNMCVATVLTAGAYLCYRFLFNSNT

PPM1A = biological target: T2, PPM1A (Homo sapiens, UniProt P35813); experiment: Phosphatase assay of PPM1A
T2 sequence (P35813 1-382): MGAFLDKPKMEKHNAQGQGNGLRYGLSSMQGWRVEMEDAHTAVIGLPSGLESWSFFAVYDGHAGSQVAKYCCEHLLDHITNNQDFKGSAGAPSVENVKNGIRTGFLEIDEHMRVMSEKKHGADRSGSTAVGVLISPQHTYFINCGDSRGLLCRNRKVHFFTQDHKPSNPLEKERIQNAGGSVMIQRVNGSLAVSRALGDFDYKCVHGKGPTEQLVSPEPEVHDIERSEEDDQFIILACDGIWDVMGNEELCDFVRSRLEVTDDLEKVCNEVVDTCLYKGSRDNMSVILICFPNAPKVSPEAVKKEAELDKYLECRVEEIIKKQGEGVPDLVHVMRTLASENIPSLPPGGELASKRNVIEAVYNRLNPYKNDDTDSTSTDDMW

Scp1 = biological target: T3, Scp1 (Homo sapiens, UniProt Q9GZU7); experiment: Phosphatase assay of Scp1
T3 sequence (Q9GZU7 1-261): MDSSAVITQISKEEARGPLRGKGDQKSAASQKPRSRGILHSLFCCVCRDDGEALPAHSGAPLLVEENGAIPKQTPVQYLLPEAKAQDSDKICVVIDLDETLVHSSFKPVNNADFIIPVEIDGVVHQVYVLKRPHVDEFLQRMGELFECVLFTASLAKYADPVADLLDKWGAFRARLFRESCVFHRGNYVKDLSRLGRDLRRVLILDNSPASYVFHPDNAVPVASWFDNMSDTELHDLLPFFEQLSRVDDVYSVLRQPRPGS

O=C(N/N=C/c1ccc(Sc2ccccn2)o1)c1cccc([N+](=O)[O-])c1 [MLS000700592]
does not significantly inhibit: inhibition of PTP1B phosphatase activity (PTP1B) | inhibition of PPM1A phosphatase activity (PPM1A) | inhibition of Scp1 phosphatase activity (Scp1)

O=C(N/N=C/c1ccc(Sc2ccccn2)o1)c1ccccc1 [NCGC00241225]
does not significantly inhibit: inhibition of PTP1B phosphatase activity (PTP1B) | inhibition of PPM1A phosphatase activity (PPM1A) | inhibition of Scp1 phosphatase activity (Scp1)
